In patent publication US9533968B2, “N-thio-anthranilamide compounds and their use as pesticides” (BASF SE, priority 2012, dated 2017):

Experiments:
Type in all cases: in vivo
[1] = tested on: Silverleaf Whitefly (Bemisia argentifolii); assay: Silverleaf whitefly test, sprayed cotton plants; settings: at 100 ppm; silverleaf whitefly adults; 3 days after treatment
Source text: (§1) The active compounds are formulated in cyclohexanone as a 10,000 ppm solution supplied in tubes. The tubes are inserted into an automated electrostatic sprayer equipped with an atomizing nozzle and they serve as stock solutions for which lower dilutions are made in 50% acetone:50% water (v/v). A nonionic surfactant (Kinetic®) is included in the solution at a volume of 0.01% (v/v).
Cotton plants at the cotyledon stage (one plant per pot) are sprayed by an automated electrostatic plant sprayer equipped with an atomizing spray nozzle. The plants are dried in the sprayer fume hood and then removed from the sprayer. Each pot is placed into a plastic cup and about 10 to 12 whitefly adults (approximately 3-5 days old) are introduced. The insects are collected using an aspirator and a nontoxic Tygon® tubing connected to a barrier pipette tip. The tip, containing the collected insects, is then gently inserted into the soil containing the treated plant, allowing insects to crawl out of the tip to reach the foliage for feeding. Cups are covered with a reusable screened lid. Test plants are maintained in a growth room at about 25° C. and about 20-40% relative humidity for 3 days, avoiding direct exposure to fluorescent light (24 hour photoperiod) to prevent trapping of heat inside the cup. Mortality is assessed 3 days after treatment, compared to untreated control plants.

[2] = tested on: Tobacco Budworm (Heliothis virescens); assay: Tobacco budworm test, microtiter plates with insect diet and eggs; settings: 120 h, read-out: mortality in comparison with untreated controls
Protocol: The test unit consisted of 96-well-microtiter plates containing an insect diet and 15-25 H. virescens eggs. The compounds were formulated using a solution containing 75% v/v water and 25% v/v DMSO. Different concentrations of formulated compounds were sprayed onto the insect diet at 10 μl, using a custom built micro atomizer, at two replications.
After application, microtiter plates were incubated at about 28±1° C. and about 80±5% relative humidity for 5 days. Egg and larval mortality was then visually assessed.

[3] = tested on: Mediterranean fruitfly (Ceratitis capitata); assay: Mediterranean fruitfly test, microtiter plates with insect diet and eggs; settings: 120 h, read-out: mortality in comparison with untreated controls
Protocol: For evaluating control of Mediterranean fruitfly (Ceratitis capitata) the test unit consists of microtiter plates containing an insect diet and 50-80 C. capitata eggs.
The compounds are formulated using a solution containing 75% v/v water and 25% v/v DMSO. Different concentrations of formulated compounds are sprayed onto the insect diet at 5 μl, using a custom built micro atomizer, at two replications.
After application, microtiter plates are incubated at about 28±1° C. and about 80±5% relative humidity for 5 days. Egg and larval mortality is then visually assessed.

[4] = tested on: boll weevil (Anthonomus grandis); assay: Boll weevil test, microtiter plates with insect diet and eggs; settings: 120 h, read-out: mortality in comparison with untreated controls
Protocol: For evaluating control of boll weevil (Anthonomus grandis) the test unit consists of 24-well-microtiter plates containing an insect diet and 20-30 A. grandis eggs.
The compounds are formulated using a solution containing 75% v/v water and 25% v/v DMSO. Different concentrations of formulated compounds are sprayed onto the insect diet at 20 μl, using a custom built micro atomizer, at two replications.
After application, microtiter plates are incubated at about 23±1° C. and about 50±5% relative humidity for 5 days. Egg and larval mortality is then visually assessed.

[5] = tested on: Southern Armyworm (Spodoptera eridania); assay: Southern armyworm test, sprayed lima bean plants; settings: 96 h, read-out: mortality in comparison with untreated controls
Protocol: as §1
Lima bean plants (variety Sieva) are grown 2 plants to a pot and selected for treatment at the 1st true leaf stage. Test solutions are sprayed onto the foliage by an automated electrostatic plant sprayer equipped with an atomizing spray nozzle. The plants are dried in the sprayer fume hood and then removed from the sprayer. Each pot is placed into perforated plastic bags with a zip closure. About 10 to 11 armyworm larvae are placed into the bag and the bags zipped closed. Test plants are maintained in a growth room at about 25° C. and about 20-40% relative humidity for 4 days, avoiding direct exposure to fluorescent light (24 hour photoperiod) to prevent trapping of heat inside the bags. Mortality and reduced feeding are assessed 4 days after treatment, compared to untreated control plants.

[6] = tested on: Colorado Potato Beetle (Leptinotarsa decemlineata); assay: Colorado potato beetle test, sprayed eggplant foliage; settings: foliar, 96 h, read-out: mortality in comparison with untreated controls
Protocol: as §1
Eggplants are grown 2 plants to a pot and are selected for treatment at the 1st true leaf stage. Test solutions are sprayed onto the foliage by an automated electrostatic plant sprayer equipped with an atomizing spray nozzle. The plants are dried in the sprayer fume hood and then removed from the sprayer. The treated foliage is then cut and removed from the pot and placed in a Petri dish lined with moistened filter pa-per. Five beetle larvae are introduced into each Petri dish and the dish is covered by a Petri dish lid. Petri dishes are maintained in a growth room at about 25° C. and about 20-40% relative humidity for 4 days, avoiding direct exposure to fluorescent light (24 hour photoperiod) to prevent trapping of heat inside the dishes. Mortality and reduced feeding are assessed 4 days after treatment, compared to untreated control plants.

[7] = tested on: Diamond Back Moth (Plutella Xylostella); assay: Diamond back moth test, cabbage leaf dip; settings: foliar, 72 h, read-out: mortality in comparison with untreated controls
Protocol: The active compound is dissolved at the desired concentration in a mixture of 1:1 (vol/vol) distilled water:aceteone. Surfactant (Alkamuls® EL 620) is added at a rate of 0.1% (vol/vol). The test solution is prepared at the day of use.
Leaves of cabbage are dipped in test solution and air-dried. Treated leaves are placed in petri dishes lined with moist filter paper and inoculated with ten 3rd instar larvae. Mortality is recorded 72 hours after treatment. Feeding damages are also recorded using a scale of 0-100%.

[8] = tested on: Rice Green Leafhopper (Nephotettix virescens); assay: Rice green leafhopper test, sprayed rice seedlings; settings: 72 h, read-out: mortality in comparison with untreated controls
Protocol: Rice seedlings are cleaned and washed 24 hours before spraying. The active compounds are formulated in 50:50 acetone:water (vol:vol), and 0.1% vol/vol surfactant (EL 620) is added. Potted rice seedlings are sprayed with 5 ml test solution, air dried, placed in cages and inoculated with 10 adults. Treated rice plants are kept at about 28-29° C. and relative humidity of about 50-60%. Percent mortality is recorded after 72 hours.

[9] = tested on: Orchid Thrips (Dichromothrips Corbetti); assay: Orchid thrips test, floral-immersion technique; settings: 96 h, read-out: mortality in comparison with untreated controls
Protocol: Dichromothrips corbetti adults used for bioassay are obtained from a colony maintained continuously under laboratory conditions. For testing purposes, the test compound is diluted to a concentration of 300 ppm (wt compound: vol diluent) in a 1:1 mixture of acetone:water (vol:vol), plus 0.01% vol/vol Kinetic® surfactant.
Thrips potency of each compound is evaluated by using a floral-immersion technique. Plastic petri dishes are used as test arenas. All petals of individual, intact orchid flowers are dipped into treatment solution and allowed to dry. Treated flowers are placed into individual petri dishes along with 10-15 adult thrips. The petri dishes are then covered with lids. All test arenas are held under continuous light and a temperature of about 28° C. for duration of the assay. After 4 days, the numbers of live thrips are counted on each flower, and along inner walls of each petri dish. The level of thrips mortality is extrapolated from pre-treatment thrips numbers.

[10] = tested on: vetch aphid (Megoura viciae); assay: Vetch aphid test, broad bean leaf disks in microtiter plates; settings: foliar, 120 h, read-out: mortality in comparison with untreated controls
Protocol: For evaluating control of vetch aphid (Megoura viciae) through contact or systemic means the test unit consists of 24-well-microtiter plates containing broad bean leaf disks.
The compounds are formulated using a solution containing 75% v/v water and 25% v/v DMSO. Different concentrations of formulated compounds are sprayed onto the leaf disks at 2.5 μl, using a custom built micro atomizer, at two replications.
After application, the leaf disks are air-dried and 5-8 adult aphids placed on the leaf disks inside the microtiter plate wells. The aphids are then allowed to suck on the treated leaf disks and incubated at about 23±1° C. and about 50±5% relative humidity for 5 days. Aphid mortality and fecundity is then visually assessed.

[11] = tested on: Cowpea Aphid (Aphis Craccivora); assay: Cowpea aphid test, sprayed potted cowpea plants; settings: read-out: mortality in comparison with untreated controls
Protocol: If not otherwise specified the test solutions are prepared as follow:
The active compound is dissolved at the desired concentration in a mixture of 1:1 (vol:vol) distilled water:aceton. The test solution is prepared at the day of use and in general at concentrations of […].
Potted cowpea plants colonized with approximately 100-150 aphids of various stages are sprayed after the pest population has been recorded. Population reduction is assessed after 24, 72, and 120 hours.

## CC(C)[S+]([O-])NC(=O)c1cc(Br)cc(Br)c1NC(=O)c1cc(C(F)(F)F)nn1-c1ncccc1Cl (stereo not drawn) [Compound 1-7]
[1]
  mortality in comparison with untreated controls: over 75%

## CSNC(=O)c1cc(Cl)cc(C)c1NC(=O)c1cc(C(F)(F)F)nn1-c1ncccc1Cl [Compound 1-22, N-[4-chloro-2-methyl-6-(methylsulfanylcarbamoyl)phenyl]-2-(3-chloro-2-pyridyl)-5-(trifluoromethyl)pyrazole-3-carboxamide]
[2]
  mortality at 2500 ppm: > 75%
[3]
  mortality at 2500 ppm: > 75%
[4]
  mortality at 2500 ppm: > 75%
[5]
  mortality at 1 ppm: > 75%
[6]
  mortality at 1 ppm: > 75%
[7]
  mortality at 500 ppm: > 75%
[8]
  mortality at 500 ppm: > 75%
[9]
  mortality at 500 ppm: > 75%
[10]
  mortality at 2500 ppm: > 75%

## Cc1cc(Cl)cc(C(=O)N[S+](C)[O-])c1NC(=O)c1cc(C(F)(F)F)nn1-c1ncccc1Cl (stereo not drawn) [Compound 1-28, N-[4-chloro-2-methyl-6-(methylsulfinylcarbamoyl)phenyl]-2-(3-chloro-2-pyridyl)-5-(trifluoromethyl)pyrazole-3-carboxamide]
[2]
  mortality at 2500 ppm: > 75%
[3]
  mortality at 2500 ppm: > 75%
[4]
  mortality at 2500 ppm: > 75%
[7]
  mortality at 500 ppm: > 75%
[8]
  mortality at 500 ppm: > 75%
[9]
  mortality at 500 ppm: > 75%
[11]
  mortality at 500 ppm: > 75%
[10]
  mortality at 2500 ppm: > 75%
